The values that follow are results of earlier work, collected in patent US6949518B1, “Methods for treating macular degeneration with topiramate” (priority 2003, dated 2005).

Data set [1] concerns carbonic anhydrase.
The conditions of data set [2]: elimination predominantly unchanged via the renal route.
The subject of data set [3] is patients with type 2 diabetes.

With `CC1(C)O[C@@H]2[C@@H](CO[C@@]3(COS(N)(=O)=O)OC(C)(C)O[C@@H]23)O1` [topiramate, 2,3:4,5-Di-O-isopropylidene-β-D-fructopyranose sulfamate], the carbonic anhydrase inhibition entry in data set [1] is listed as “weak carbonic anhydrase inhibitor”. Also, the “solubility in acetone, chloroform, dimethylsulfoxide, and ethanol” value (organic solvents) is given as “freely soluble”. The “pH of saturated solution” value (saturated solution) is 6.3. In addition, the “plasma t½” value in data set [2] is 20 to 30 h. In data set [3] (by the end of trial), the dendrite length result was “increased” and the peroneal nerve amplitude entry was “increased”. Moreover, the total neuropathy scores in data set [3] (end of trial, decreased from baseline 14, 11 patients, 25 mg/day titrated over 42 days to maximum tolerated dose or 100 mg/day, then 84 more days) was 11.8.
